Laboratory results as given in article PMC12514245, “Impaired migration and lung invasion of human melanoma by a novel small molecule targeting the transmembrane domain of death receptor p75^NTR” (EMBO Molecular Medicine, 2025).
Values joined by “and” are separate entries in the source; they are usually repeats but may differ in a detail not shown here. Equal entries are not always repeated. Where two headings read alike, the source gives them in different places.

How the values were obtained:
[1] = Cell viability (Presto Blue), A875 NT; format: cell-based, human; settings: human, A875 NT cells, 2 days; for viability at 2 days, 1 uM: Div17E5 1 uM; for viability at 2 days, 1.5 uM: Div17E5 1.5 uM
Method: (§1) To measure the cytotoxic effect of Div17E5, A875 NT or shp75 cells were seeded at 2000 cells per well (in 100 μL DMEM) in a 96-well plate and incubated for 12 h. Next, Div17E5 at various concentrations was added and incubated at 37 °C in 5% CO2 for 2 days. Following treatment, 10 μL Presto Blue® (resazurin, ThermoFIsher) was added to each well of the 96-well plate and incubated for 2 h at 37 °C in 5% CO2. Cellular fluorescence in each well was measured at 535 nm excitation and 615 nm emission using a microtiter plate reader. Data was converted into the relative cell viability (%) from the fluorescence of cells in each treatment relative to that of the DMSO control group (set as 100%).

A875 NT cells = assay: Cell viability (Presto Blue), A875 NT; format: cell-based, human
Method: as §1

p75^NTR TMD = p75^NTR TMD (Homo sapiens, UniProt P08138); assay: 2D NMR (1H-15N TROSY-HSQC) chemical shift perturbation, p75NTR TMD in bicelles; settings: 4 molar excess compound
[2] = tested on: A875-shp75 melanoma xenograft; assay: Melanoma lung invasion assay, A875-shp75, treatment from one day before cell injection; format: in vivo, SCID mice
Method: Next, to assess the potential inhibitory effects of Np75-4A22 on melanoma cell migration and tissue invasion in vivo, we utilized the highly metastatic human A875 xenograft model. […] Initially, to mimic metastatic dissemination from the primary tumor site, A875-NT or A875-shp75 cells expressing GFP-Luc (for live-monitoring of tumor growth) were injected intravenously in female SCID mice 24 h following a single oral administration of Np75-A422 (200 mg/kg) or drug vehicle alone. Mice received 3 cycles of Np75-A422 (200 mg/kg/day) following a 5 day on and 2 days off drug schedule for a total of 3 weeks (Fig. 8A). Metastatic spread to the lungs was monitored weekly by luciferase activity using the Xenogen IVIS-200 Optical in vivo luciferase imaging system and mice were sacrificed after the third week. […] In addition, assessment of the metastatic spread was also quantified by histological assessment of non-consecutive lung sections stained for human nucleolin to detect the tumor cells. […] In addition, and as expected, high expression of p75^NTR was detected in lung tumors established by A875-NT cells but was negligible in tumors derived from A875-shp75 cells (Fig. EV10).
(§2) Eight-week-old female SCID mice (Charles River Laboratories, Shrewsbury, MA, USA) were housed in groups of three to five and maintained on a 12-h light/dark schedule with a temperature of 22 °C ± 1 °C and a relative humidity of 50% ± 5%. Food and water were available ad libitum. This research study was reviewed and approved by the University of Calgary Animal Care Committee (AC22-0054) and McGill University (AUP-JGH-8269) and adheres to established ethical principles and guidelines. A875-GFPLuc (A875-NT) or A875-GFPLuc shp75 (A875-shp75) cells harvested using Puck’s EDTA were resuspended in PBS and injected intravenously into SCID mice (5 × 10^5 cells/200 μl per mouse). Np75-4A22 was dissolved in 0.5% sodium carboxymethyl cellulose (NaCMC) in reverse osmosis H2O and administered by oral gavage at 200 mg/kg/day starting one day prior to intravenous (tail vein) injection of tumor cells and continued for 3 1-week cycles (cycle: 5 days on drug, 2 days off drug). Tumor spread to the lung was monitored weekly by luciferase activity using the Xenogen IVIS-200 Optical in vivo luciferase imaging system as described previously (Lun et al, [2016]) and by immunohistochemistry (IHC) at designated time points. IHC was performed after formalin fixation, paraffin embedding and sectioning of the lungs, using a human-specific mouse polyclonal nucleolin antibody (1:500 dilution) and detected using Dako liquid DAB+ Substrate Chromogen System (Dako: k3468, California, USA) followed by a hematoxylin counterstain (Sigma, Oakville, ON, Canada). Sections were mounted and imaged on an Olympus phase contrast microscope (Olympus Life Science, Tokyo, Japan). For immunofluorescence, sections were stained with anti-human nucleolin and anti-human p75NTR antibodies (1:1000 dilution), subsequently detected with 1:200 dilutions of Alexa Fluor™ 488 Goat anti-Mouse IgG (H + L) Highly Cross-Adsorbed Secondary Antibody and Alexa Fluor™ 568 Goat anti-Rabbit IgG (H + L) Cross-Adsorbed Secondary Antibody. Sections were further stained with DAPI to detect all nuclei. Between each treatment, TBS Automation Wash Buffer (Biocare Medical TWB945M) was employed. Images were taken with LSM800 confocal microscope and ZEN system.

[3] = tested on: A875-shp75 melanoma xenograft; assay: Melanoma lung invasion assay, A875-shp75, delayed treatment 3 weeks after cell injection; format: in vivo, SCID mice
Method: Finally, we investigated whether delayed administration of Np75-4A22 was able to affect engraftment and growth of metastatic tumors in the lung. To this end, drug treatment (orally at 200 mg/kg) was initiated 3 weeks after intravenous injection of A875-NT or A875-shp75 cells in female SCID mice and continued for additionally 4 weekly cycles (5 days on/2 days off) as above (Fig. 8E). Metastatic spread to the lungs was monitored weekly by bioluminescent imaging of luciferase-expressing melanoma cells. […] We conclude that Np75-4A22 can be efficacious at reducing the spread and seeding of melanoma cells in the lung when administered either before or after cell implantation.
as §2

[4] = N=3, read-out: Cell Viability, Mean
[5] = read-out: Cell Viability, n1-n3

Sequence of p75^NTR TMD (P08138 240-274 limits assumed): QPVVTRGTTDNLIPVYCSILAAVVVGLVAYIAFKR

Oc1ccc(-c2cncc(Nc3ccc(Br)c(Cl)c3)n2)cc1 [Div17E5]
viability at 2 days, 0.5 uM ([1]; Div17E5 0.5 uM, N=3): 79% | viability at 2 days, 1 uM [1, 4]: 75% | viability at 2 days, 1 uM [1, 5]: 77% | viability at 2 days, 1.5 uM [1, 4]: 65% | viability at 2 days, 1.5 uM [1, 5]: 71% | Cell Viability, n1-n3 (A875 NT cells; Div17E5 0.5 uM, 2 days): 76% | Cell Viability, n1-n3 (A875 NT cells; Div17E5 1 uM, 2 days): 69% and 80% | Cell Viability, n1-n3 (A875 NT cells; Div17E5 1.5 uM, 2 days): 66% | Cell Viability, n1-n3 (A875 NT cells; Div17E5 2.5 uM, 2 days): 61% and 52% | Cell Viability, n1-n3 (A875 NT cells; Div17E5 5 uM, 2 days): 51% and 57% | Cell Viability, n1-n3 (A875 NT cells; Div17E5 7.5 uM, 2 days): 44% and 51% | Cell Viability, n1-n3 (A875 NT cells; Div17E5 10 uM, 2 days): 39% and 42% | viability at 0.5 µM (A875 NT cells; Homo sapiens, A875, 48 h, Div17E5 0.5 uM, 2 days, read-out: Cell Viability, n1-n3): 85% | viability at 2 µM (A875 NT cells; Homo sapiens, A875, 48 h, Div17E5 2 uM, 2 days, read-out: Cell Viability, n1-n3): 67% | viability at 2.5 µM (A875 NT cells; Homo sapiens, A875, 48 h, Div17E5 2.5 uM, 2 days, N=3, read-out: Cell Viability, Mean): 59% | viability at 2.5 µM (A875 NT cells; Homo sapiens, A875, 48 h, Div17E5 2.5 uM, 2 days, read-out: Cell Viability, n1-n3): 65% | viability at 5 µM (A875 NT cells; Homo sapiens, A875, 48 h, Div17E5 5 uM, 2 days, N=3, read-out: Cell Viability, Mean): 55% | viability at 5 µM (A875 NT cells; Homo sapiens, A875, 48 h, Div17E5 5 uM, 2 days, read-out: Cell Viability, n1-n3): 58% | viability at 7.5 µM (A875 NT cells; Homo sapiens, A875, 48 h, Div17E5 7.5 uM, 2 days, N=3, read-out: Cell Viability, Mean): 50% | viability at 7.5 µM (A875 NT cells; Homo sapiens, A875, 48 h, Div17E5 7.5 uM, 2 days, read-out: Cell Viability, n1-n3): 55% | viability at 10 µM (A875 NT cells; Homo sapiens, A875, 48 h, Div17E5 10 uM, 2 days, read-out: Cell Viability, n1-n3): 49% | cell viability (A875 NT cells; above 10 μM): sensitive | cell viability (A875 NT cells; dose-dependent): decreased viability

Cc1cccc(-c2cncc(Nc3ccc(Br)c(Cl)c3Cl)n2)c1C [Np75-4A22]
chemical shift perturbations, p75NTR TMD (p75^NTR TMD): Significant chemical shifts | Metastatic Nodules/Lung Section, Average ([2]; A875-shp75, average of 5 non-consecutive slides per individual mouse): 1.2 and 0.8 and 0.4 and 0.2 and 1.8 and 0.6 and 10.6 | Cancer Cells/Lung Section, Average per mouse ([2]; A875-shp75, average of 5 slides of one mouse): 7 and 6 and 2.8 and 3.2 and 3.6 and 25.6 and 1.6 and 13 and 132.2 | Cancer Cells/Lung Section, group Average ([2]; A875-shp75, average of all mice): 21.6667 | Metastatic Nodules/Lung Section, group Average ([2]; A875-shp75, average over all mice of the group): 1.8 | Metastatic Nodules/Lung Section, Slide 1 ([2]; A875-shp75, individual mouse, slide 1 of 5 non-consecutive slides/mouse): 2 and 1 and 0 and 6 | Metastatic Nodules/Lung Section, Slide 2 ([2]; A875-shp75, individual mouse, slide 2 of 5 non-consecutive slides/mouse): 2 and 0 and 1 and 3 and 14 | Metastatic Nodules/Lung Section, Slide 3 ([2]; A875-shp75, individual mouse, slide 3 of 5 non-consecutive slides/mouse): 1 and 0 and 2 and 18 | Metastatic Nodules/Lung Section, Slide 4 ([2]; A875-shp75, individual mouse, slide 4 of 5 non-consecutive slides/mouse): 1 and 0 and 2 and 12 | Metastatic Nodules/Lung Section, Slide 5 ([2]; A875-shp75, individual mouse, slide 5 of 5 non-consecutive slides/mouse): 0 and 1 and 3 | p75NTR-negative lung tumors ([2]; oral 200 mg/kg/day, 3 weeks): not significantly affected | Average Photons/second/week, wk2 ([3]; group average, wk2): 9.88E+04 Photons/second | Average Photons/second/week, wk3 ([3]; group average, wk3): 1.46E+05 Photons/second | Average Photons/second/week, wk4 ([3]; group average, wk4): 1.10E+05 Photons/second | Average Photons/second/week, wk5 ([3]; group average, wk5): 2.77E+05 Photons/second | Average Photons/second/week, wk6 ([3]; group average, wk6): 4.60E+05 Photons/second | Average Photons/second/week, wk7 ([3]; group average, wk7): 1.10E+06 Photons/second | Photons/second/ mouse/week, wk2 ([3]; individual mouse, wk2): 1.05E+05 Photons/second and 6.22E+04 Photons/second and 8.27E+04 Photons/second and 9.38E+04 Photons/second and 1.02E+05 Photons/second and 8.99E+04 Photons/second and 1.49E+05 Photons/second and 1.09E+05 Photons/second and 9.56E+04 Photons/second | Photons/second/ mouse/week, wk3 ([3]; individual mouse, wk3): 1.10E+05 Photons/second and 1.18E+05 Photons/second and 1.42E+05 Photons/second and 1.47E+05 Photons/second and 1.39E+05 Photons/second and 1.86E+05 Photons/second and 1.67E+05 Photons/second and 1.65E+05 Photons/second and 1.36E+05 Photons/second | Photons/second/ mouse/week, wk4 ([3]; individual mouse, wk4): 1.43E+05 Photons/second and 9.53E+04 Photons/second and 1.42E+05 Photons/second and 1.00E+05 Photons/second and 1.24E+05 Photons/second and 1.66E+05 Photons/second and 4.36E+04 Photons/second and 7.52E+04 Photons/second and 1.02E+05 Photons/second | Photons/second/ mouse/week, wk5 ([3]; individual mouse, wk5): 1.26E+05 Photons/second and 1.70E+05 Photons/second and 1.58E+05 Photons/second and 1.31E+05 Photons/second and 1.75E+05 Photons/second and 1.89E+05 Photons/second and 1.28E+05 Photons/second and 4.29E+05 Photons/second and 9.90E+05 Photons/second | Photons/second/ mouse/week, wk6 ([3]; individual mouse, wk6): 2.09E+05 Photons/second and 1.96E+05 Photons/second and 2.02E+05 Photons/second and 2.61E+05 Photons/second and 6.18E+04 Photons/second and 1.19E+05 Photons/second and 3.83E+05 Photons/second and 2.25E+06 Photons/second | Photons/second/ mouse/week, wk7 ([3]; individual mouse, wk7): 1.96E+05 Photons/second and 1.65E+05 Photons/second and 3.28E+05 Photons/second and 1.98E+06 Photons/second and 3.78E+06 Photons/second
